Measurements as given in ChEMBL document CHEMBL1201862, “PubChem BioAssay data set” (2004).
Values joined by “and” are separate entries in the source; they are usually repeats but may differ in a detail not shown here. Equal values may be shown once.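 48-hour exposure; five concentrations; linearly interpolated endpoints. GI50 = concentration required for 50% inhibition of growth.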 Active and inactive are the calls of the source. No stated cut-off is given here; in the data, active = GI50 up to about 1.1 µM and inactive = higher.

What was measured:
Assay in all cases: DTP human tumour cell line panel, 48 h
SK-OV-3 = test system: SK-OV-3
HT-29 = test system: HT-29
U-251 = test system: U-251
NCI-H460 = test system: NCI-H460
LOX IMVI = test system: LOX IMVI
ACHN = test system: ACHN
K562 = test system: K562
RPMI-8226 = test system: RPMI-8226
BT-549 = test system: BT-549
UACC-257 = test system: UACC-257
EKVX = test system: EKVX
MOLT-4 = test system: MOLT-4
SNB-75 = test system: SNB-75
786-0 = test system: 786-0
IGROV-1 = test system: IGROV-1
NCI-H226 = test system: NCI-H226
OVCAR-3 = test system: OVCAR-3
KM12 = test system: KM12
COLO 205 = test system: COLO 205
HCC 2998 = test system: HCC 2998

Compound | GI50 (SK-OV-3) | GI50 (HT-29) | GI50 (U-251) | GI50 (NCI-H460) | GI50 (LOX IMVI) | GI50 (ACHN) | GI50 (K562) | GI50 (RPMI-8226) | GI50 (BT-549) | GI50 (UACC-257) | GI50 (EKVX) | GI50 (MOLT-4) | GI50 (SNB-75) | GI50 (786-0) | GI50 (IGROV-1) | GI50 (NCI-H226) | GI50 (OVCAR-3) | GI50 (KM12) | GI50 (COLO 205) | GI50 (HCC 2998)
CCNCC(O)COc1ccc2c(c1)[n+]([O-])nc(N)[n+]2[O-] (stereo not drawn) | 10.6 µM (inactive) | 68.9 µM (inactive) | 42.7 µM (inactive) | > 10 µM (inactive) | 14.3 µM (inactive) | 30.1 µM (inactive) | 35.2 µM (inactive) | 61.9 µM (inactive) | > 100 µM (inactive) | > 100 µM (inactive) | > 100 µM (inactive) | 14.5 µM (inactive) | 29.4 µM (inactive) | 51.6 µM (inactive) | 36.3 µM (inactive) | 59.2 µM (inactive) | > 100 µM (inactive) | 59.3 µM (inactive) | 68.9 µM (inactive) | –
C=C(C)[C@H]1CC23C(=O)C(C(=O)C(C)C)=C(O)[C@](C)(C[C@H]2C1(C)C)C3=O [LALIBINONE B] | – | 11.9 µM (inactive) | 19.1 µM (inactive) | 17 µM (inactive) | 20.7 µM (inactive) | 16.6 µM (inactive) | 20.5 µM (inactive) | 12.8 µM (inactive) | 17.5 µM (inactive) | 24 µM (inactive) | 11 µM (inactive) | 3.72 µM (inactive) | – | 15.6 µM (inactive) | 12.5 µM (inactive) | 16.2 µM (inactive) | 16.1 µM (inactive) | 19.6 µM (inactive) | 11.1 µM (inactive) | –
CC(C)CC[C@H](O)[C@@H](C)[C@H]1[C@@H](OC2OC(C)C(O)C(O)C2O)C[C@H]2[C@@H]3CC=C4C[C@@H](O)CC[C@]4(C)[C@H]3[C@@H](O)C[C@]12C (stereo partly drawn) | > 100 µM (inactive) | 1.75 µM (inactive) | 0.0562 µM (active) | 0.241 µM (active) | 0.889 µM (active) | > 27.7 µM (inactive) | 0.235 µM (active) | 0.0631 µM (active) | 0.491 µM (active) | 1.12 µM (inactive) | 11.4 µM (inactive) | 0.0904 µM (active) | 5.4 µM (inactive) | 0.084 µM (active) | 4.42 µM (inactive) | – | > 100 µM (inactive) | 3.28 µM (inactive) | 1.8 µM (inactive) | > 100 µM (inactive)
Cc1cc(C)c(N)c(CO)c1 | > 100 µM (inactive) | – | 61.1 µM (inactive) and 56.1 µM (inactive) | 46.7 µM (inactive) and 34 µM (inactive) | > 100 µM (inactive) | > 100 µM (inactive) | 59.8 µM (inactive) and 67.5 µM (inactive) | > 100 µM (inactive) | > 100 µM (inactive) | 45.3 µM (inactive) and 58.5 µM (inactive) | > 100 µM (inactive) and 81.1 µM (inactive) | > 100 µM (inactive) | > 100 µM (inactive) | > 100 µM (inactive) | – | – | 32.7 µM (inactive) and 24.4 µM (inactive) | > 100 µM (inactive) | 36.2 µM (inactive) and 46.7 µM (inactive) | 74.5 µM (inactive) and 71.1 µM (inactive)
CCOC(=O)[C@@]12NN=N[C@@H]1[C@H]1CO[C@H](c3ccccc3)N1C2=O | 18.2 µM (inactive) | 13.5 µM (inactive) | 4.54 µM (inactive) | 4.44 µM (inactive) | 2.18 µM (inactive) | 13.4 µM (inactive) | – | 3.24 µM (inactive) | 11.7 µM (inactive) | 6.44 µM (inactive) | 13.9 µM (inactive) | 5.33 µM (inactive) | – | 5.97 µM (inactive) | 5.24 µM (inactive) | – | 8.53 µM (inactive) | 13.1 µM (inactive) | 10.2 µM (inactive) | 12.9 µM (inactive)
O=C(O)c1ccc(CNCc2ccccc2)cc1 | > 100 µM (inactive) | > 100 µM (inactive) | > 100 µM (inactive) | > 100 µM (inactive) | > 100 µM (inactive) | > 100 µM (inactive) | > 100 µM (inactive) | > 100 µM (inactive) | > 100 µM (inactive) | > 100 µM (inactive) | > 100 µM (inactive) | > 100 µM (inactive) | – | > 100 µM (inactive) | > 100 µM (inactive) | > 100 µM (inactive) | > 100 µM (inactive) | > 100 µM (inactive) | > 100 µM (inactive) | –
C1CSC[C@H]2COC[C@@H](CSCCS1)S2 | – | > 100 µM (inactive) | > 100 µM (inactive) | > 100 µM (inactive) | > 100 µM (inactive) | – | > 100 µM (inactive) | – | > 100 µM (inactive) | > 100 µM (inactive) | > 100 µM (inactive) | > 100 µM (inactive) | 56 µM (inactive) | > 100 µM (inactive) | – | – | > 100 µM (inactive) | > 100 µM (inactive) | > 100 µM (inactive) | > 100 µM (inactive)
O=C1C[S+]([O-])C23c4cc5ccccc5n4CCC2CCCN13 (stereo not drawn) | > 100 µM (inactive) | > 100 µM (inactive) | > 100 µM (inactive) | – | > 100 µM (inactive) | > 100 µM (inactive) | > 100 µM (inactive) | > 100 µM (inactive) | > 100 µM (inactive) | > 100 µM (inactive) | > 100 µM (inactive) | > 100 µM (inactive) | – | > 100 µM (inactive) | > 100 µM (inactive) | > 100 µM (inactive) | > 100 µM (inactive) | > 100 µM (inactive) | > 100 µM (inactive) | –
C#C[C@]1(O)CC[C@H]2[C@@H]3CCC4=C/C(=N/CCOC(=O)c5cccc6c(=O)c7ccccc7[nH]c56)CC[C@@H]4[C@H]3CC[C@@]21C | 51.5 µM (inactive) | 64.3 µM (inactive) | 16.4 µM (inactive) | 32.7 µM (inactive) | 28.3 µM (inactive) | 40.4 µM (inactive) | 36.4 µM (inactive) | – | 32.3 µM (inactive) | 43.2 µM (inactive) | 46.3 µM (inactive) | 25.9 µM (inactive) | – | 42.4 µM (inactive) | 29.5 µM (inactive) | 76.2 µM (inactive) | 33.5 µM (inactive) | 30.6 µM (inactive) | 37.1 µM (inactive) | –
[O-][S+]1c2ccccc2N=C(c2cccc3ccccc23)CC1c1cccc2ccccc12 (stereo not drawn) | 32.9 µM (inactive) | 25.7 µM (inactive) | 18.6 µM (inactive) | 15 µM (inactive) | 13.6 µM (inactive) | 23.1 µM (inactive) | 30.8 µM (inactive) | 19.8 µM (inactive) | – | 17.1 µM (inactive) | 21.4 µM (inactive) | 20.3 µM (inactive) | 23.1 µM (inactive) | 24.5 µM (inactive) | 15.1 µM (inactive) | 21.1 µM (inactive) | 19.1 µM (inactive) | 15.2 µM (inactive) | 20.9 µM (inactive) | 17.2 µM (inactive)
CC(C)CCC[C@@H](C)C1CCC2[C@@H]3CCC4C[C@@H](NS(C)(=O)=O)CC[C@]4(C)C3CC[C@@]21C (stereo partly drawn) | > 100 µM (inactive) | > 100 µM (inactive) | > 100 µM (inactive) | > 100 µM (inactive) | > 100 µM (inactive) | – | > 100 µM (inactive) | > 100 µM (inactive) | > 100 µM (inactive) | > 100 µM (inactive) | > 100 µM (inactive) | > 100 µM (inactive) | > 100 µM (inactive) | > 100 µM (inactive) | > 100 µM (inactive) | > 100 µM (inactive) | > 100 µM (inactive) | > 100 µM (inactive) | > 100 µM (inactive) | –
